Patent US20150105252A1, “SUBSTITUTED PYRAZOLES AS HERBICIDES” (E I DU PONT DE NEMOURS AND COMPANY, priority 2013, published 2015)

Legend:
mustard, wild [1] = assay: Test D postemergence; format: in vivo, Sinapis arvensis; details: scale 0 to 100
Summary of the method: (§1)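 Visual 0-100 rating (100 = complete control) against untreated plants, made 14 to 21 days after treatment in a controlled environment. Compounds, formulated with surfactant in non-phytotoxic solvent, were applied either to seeds just sown in silt loam or to 1- to 4-leaf plants (2 to 18 cm) grown in peat-based medium.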

oat, wild = assay: Test D preemergence; format: in vivo, Avena fatua; details: for Plant response rating, Oat, Wild: Preemergence, scale 0 to 100
Summary of the method: as §1

ryegrass, Italian = assay: Test D postemergence; format: in vivo, Lolium multiflorum; details: scale 0 to 100
Summary of the method: as §1

foxtail, green [2] = assay: Test D postemergence; format: in vivo, Setaria viridis; details: scale 0 to 100
Summary of the method: as §1

field violet = assay: Test D postemergence; format: in vivo, Viola arvensis; details: scale 0 to 100
Summary of the method: as §1

radish, wild [3] = assay: Test D postemergence; format: in vivo, Raphanus raphanistrum; details: scale 0 to 100
Summary of the method: as §1

blackgrass = assay: Test D preemergence; format: in vivo, Alopecurus myosuroides; details: for Plant response rating, Blackgrass: Preemergence, scale 0 to 100
Source text: (§2) Seeds of plant species selected from bluegrass (annual bluegrass, Poa annua), blackgrass (Alopecurus myosuroides), canarygrass (littleseed canarygrass, Phalaris minor), chickweed (common chickweed, Stellaria media), galium (catchweed bedstraw, Galium aparine), bromegrass, downy (downy bromegrass, Bromus tectorum), field poppy (Papaver rhoeas), field violet (Viola arvensis), foxtail, green (green foxtail, Setaria viridis), deadnettle (henbit deadnettle, Lamium amplexicaule), ryegrass, Italian (Italian ryegrass, Lolium multiflorum), kochia (Kochia scoparia), lambsquarters (Chenopodium album), oilseed rape (Brassica napus), pigweed (redroot pigweed, Amaranthus retroflexus), chamomile (scentless chamomile, Matricaria inodora), speedwell (bird's-eye speedwell, Veronica persica), barley, spring (spring barley, Hordeum vulgare), wheat, spring (spring wheat, Triticum aestivum), buckwheat, wild (wild buckwheat, Polygonum convolvulus), mustard, wild (wild mustard, Sinapis arvensis), oat, wild (wild oat, Avena fatua), radish, wild (wild radish, Raphanus raphanistrum), windgrass (Apera spica-venti), Russian thistle (Salsola kali), barley, winter (winter barley, Hordeum vulgare), and wheat, winter (winter wheat, Triticum aestivum) were planted into a silt loam soil and treated preemergence with test chemicals formulated in a non-phytotoxic solvent mixture which included a surfactant.
(§3) At the same time, these species were planted in pots containing Redi-Earth® planting medium (Scotts Company, 14111 Scottslawn Road, Marysville, Ohio 43041) comprising spaghnum peat moss, vermiculite, wetting agent and starter nutrients and treated with postemergence applications of the test chemicals formulated in the same manner. Plants ranged in height from 2 to 18 cm (1- to 4-leaf stage). Treated plants and controls were maintained in a controlled growth environment for 14 to 21 days after which time all species were compared to controls and visually evaluated. Plant response ratings, summarized in Table D, are based on a scale of 0 to 100 where 0 is no effect and 100 is complete control. A dash (-) response means no test result.

wheat, spring = assay: Test D postemergence; format: in vivo, Triticum aestivum; details: scale 0 to 100
Source text: as §2, §3

wheat, winter = assay: Test D postemergence; format: in vivo, Triticum aestivum; details: scale 0 to 100
Source text: as §2, §3

barley, spring = assay: Test D preemergence; format: in vivo, Hordeum vulgare; details: for Plant response rating, Barley, Spring: Preemergence, scale 0 to 100
Source text: as §2, §3

barley, winter = assay: Test D preemergence; format: in vivo, Hordeum vulgare; details: for Plant response rating, Barley, Winter: Preemergence, scale 0 to 100
Source text: as §2, §3

chickweed = assay: Test D postemergence; format: in vivo, Stellaria media; details: scale 0 to 100
Summary of the method: as §1

mustard, wild [4] = assay: Test D preemergence; format: in vivo, Sinapis arvensis; details: Preemergence, scale 0 to 100
Summary of the method: as §1

galium = assay: Test D postemergence; format: in vivo, Galium aparine; details: scale 0 to 100
Summary of the method: as §1

deadnettle = assay: Test D preemergence; format: in vivo, Lamium amplexicaule; details: for Plant response rating, Deadnettle: Preemergence, scale 0 to 100
Summary of the method: as §1

canarygrass = assay: Test D preemergence; format: in vivo, Phalaris minor; details: for Plant response rating, Canarygrass: Preemergence, scale 0 to 100
Summary of the method: as §1

foxtail, green [5] = assay: Test D preemergence; format: in vivo, Setaria viridis; details: for Plant response rating, Foxtail, Green: Preemergence, scale 0 to 100
Source text: as §2, §3

pigweed = assay: Test D preemergence; format: in vivo, Amaranthus retroflexus; details: for Plant response rating, Pigweed: Preemergence, scale 0 to 100
Summary of the method: as §1

windgrass = assay: Test D postemergence; format: in vivo, Apera spica-venti; details: scale 0 to 100
Summary of the method: as §1

radish, wild [6] = assay: Test D preemergence; format: in vivo, Raphanus raphanistrum; details: Preemergence, scale 0 to 100
Source text: as §2, §3

[7] = 16 g ai/ha, taken as preemergence

CCc1cc(C(=O)NC2CC2)nn1Cc1ccnc(C(F)(F)F)c1 [Compound 76]
80: Plant response rating, Pigweed (pigweed; 62 g ai/ha)
55: Foxtail, Green plant response rating (foxtail, green [2]; Postemergence, 125 g ai/ha) | Chickweed plant response rating (chickweed; postemergence, 62 g ai/ha) | Plant response rating, Galium (galium; Postemergence, 16 g ai/ha)
70: Mustard, Wild plant response rating (mustard, wild [1]; postemergence, 62 g ai/ha) | Field Violet plant response rating (field violet; Postemergence, 125 g ai/ha) | Radish, Wild plant response rating (radish, wild [3]; Postemergence, 125 g ai/ha) | Chickweed plant response rating (chickweed; Postemergence, 250 g ai/ha) | Galium plant response rating (galium; Postemergence, 31 g ai/ha)
15: Foxtail, Green plant response rating (foxtail, green [2]; postemergence, 62 g ai/ha) | Field Violet plant response rating (field violet; Postemergence, 31 g ai/ha) | Wheat, Winter plant response rating (wheat, winter; Postemergence, 125 g ai/ha) | Plant response rating, Barley, Winter (barley, winter; 62 g ai/ha) | Windgrass plant response rating (windgrass; Postemergence, 250 g ai/ha)
100: Mustard, Wild plant response rating (mustard, wild [1]; Postemergence, 125 g ai/ha) | Mustard, Wild plant response rating (mustard, wild [1]; Postemergence, 250 g ai/ha) | Plant response rating, Oat, Wild (oat, wild; 250 g ai/ha) | Plant response rating, Blackgrass (blackgrass; 62 g ai/ha) | Plant response rating, Blackgrass (blackgrass; 125 g ai/ha) | Plant response rating, Blackgrass (blackgrass; 250 g ai/ha) | Plant response rating, Mustard, Wild (mustard, wild [4]; 62 g ai/ha) | Plant response rating, Mustard, Wild (mustard, wild [4]; 125 g ai/ha) | Plant response rating, Mustard, Wild (mustard, wild [4]; 250 g ai/ha) | Plant response rating, Deadnettle (deadnettle; 62 g ai/ha) | Plant response rating, Deadnettle (deadnettle; 125 g ai/ha) | Plant response rating, Deadnettle (deadnettle; 250 g ai/ha) | Plant response rating, Canarygrass (canarygrass; 125 g ai/ha) | Plant response rating, Canarygrass (canarygrass; 250 g ai/ha) | Plant response rating, Foxtail, Green (foxtail, green [5]; 62 g ai/ha) | Plant response rating, Foxtail, Green (foxtail, green [5]; 125 g ai/ha) | Plant response rating, Foxtail, Green (foxtail, green [5]; 250 g ai/ha) | Plant response rating, Pigweed (pigweed; 125 g ai/ha) | Plant response rating, Pigweed (pigweed; 250 g ai/ha) | Plant response rating, Radish, Wild (radish, wild [6]; 62 g ai/ha) | Plant response rating, Radish, Wild (radish, wild [6]; 125 g ai/ha) | Plant response rating, Radish, Wild (radish, wild [6]; 250 g ai/ha)
65: Radish, Wild plant response rating (radish, wild [3]; Postemergence, 250 g ai/ha) | Plant response rating, Barley, Spring (barley, spring; 125 g ai/ha) | Plant response rating, Canarygrass (canarygrass; 62 g ai/ha)
95: Galium plant response rating (galium; Postemergence, 250 g ai/ha)
40: Mustard, Wild plant response rating (mustard, wild [1]; Postemergence, 31 g ai/ha)
50: Plant response rating, Blackgrass (blackgrass; 31 g ai/ha) | Chickweed plant response rating (chickweed; Postemergence, 31 g ai/ha) | Plant response rating, Deadnettle (deadnettle; 31 g ai/ha) | Plant response rating, Foxtail, Green (foxtail, green [5]; 31 g ai/ha)
75: Plant response rating, Barley, Spring (barley, spring; 250 g ai/ha) | Plant response rating, Barley, Winter (barley, winter; 250 g ai/ha) | Galium plant response rating (galium; Postemergence, 125 g ai/ha) | Galium plant response rating (galium; postemergence, 62 g ai/ha) | Plant response rating, Radish, Wild (radish, wild [6]; 31 g ai/ha)
35: Plant response rating, Oat, Wild (oat, wild; 62 g ai/ha) | Foxtail, Green plant response rating (foxtail, green [2]; Postemergence, 31 g ai/ha) | Plant response rating, Chickweed (chickweed; Postemergence, 16 g ai/ha)
60: Plant response rating, Barley, Winter (barley, winter; 125 g ai/ha) | Chickweed plant response rating (chickweed; Postemergence, 125 g ai/ha) | Plant response rating, Mustard, Wild (mustard, wild [4]; 31 g ai/ha) | Plant response rating, Pigweed (pigweed; 31 g ai/ha)
90: Plant response rating, Oat, Wild (oat, wild; 125 g ai/ha)
5: Ryegrass, Italian plant response rating (ryegrass, Italian; Postemergence, 125 g ai/ha) | Ryegrass, Italian plant response rating (ryegrass, Italian; postemergence, 62 g ai/ha) | Plant response rating, Foxtail, Green (foxtail, green [2]; Postemergence, 16 g ai/ha) | Plant response rating, Radish, Wild (radish, wild [3]; Postemergence, 16 g ai/ha) | Wheat, Spring plant response rating (wheat, spring; Postemergence, 31 g ai/ha) | Wheat, Spring plant response rating (wheat, spring; Postemergence, 125 g ai/ha) | Wheat, Spring plant response rating (wheat, spring; postemergence, 62 g ai/ha) | Plant response rating, Canarygrass (canarygrass; 31 g ai/ha) | Plant response rating, Windgrass (windgrass; Postemergence, 16 g ai/ha) | Windgrass plant response rating (windgrass; Postemergence, 31 g ai/ha)
0: Plant response rating (scale 0 to 100), Oat, Wild (oat, wild; [7]) | Plant response rating, Ryegrass, Italian (ryegrass, Italian; Postemergence, 16 g ai/ha) | Ryegrass, Italian plant response rating (ryegrass, Italian; Postemergence, 31 g ai/ha) | Plant response rating, Wheat, Spring (wheat, spring; Postemergence, 16 g ai/ha) | Plant response rating, Wheat, Winter (wheat, winter; Postemergence, 16 g ai/ha) | Wheat, Winter plant response rating (wheat, winter; Postemergence, 31 g ai/ha) | Plant response rating (scale 0 to 100), Barley, Spring (barley, spring; 16 g ai/ha, taken as preemergence, 0 = no effect, 100 = complete control) | Plant response rating, Barley, Spring (barley, spring; 31 g ai/ha) | Plant response rating (scale 0 to 100), Barley, Winter (barley, winter; [7]) | Plant response rating, Barley, Winter (barley, winter; 31 g ai/ha) | Plant response rating (scale 0 to 100), Deadnettle (deadnettle; [7]) | Plant response rating (scale 0 to 100), Canarygrass (canarygrass; [7])
20: Field Violet plant response rating (field violet; postemergence, 62 g ai/ha) | Radish, Wild plant response rating (radish, wild [3]; postemergence, 62 g ai/ha) | Plant response rating (scale 0 to 100), Blackgrass (blackgrass; [7]) | Wheat, Winter plant response rating (wheat, winter; Postemergence, 250 g ai/ha)
25: Plant response rating (scale 0 to 100), Foxtail, Green (foxtail, green [5]; [7])
85: Foxtail, Green plant response rating (foxtail, green [2]; Postemergence, 250 g ai/ha) | Field Violet plant response rating (field violet; Postemergence, 250 g ai/ha)
10: Plant response rating, Mustard, Wild (mustard, wild [1]; Postemergence, 16 g ai/ha) | Plant response rating, Oat, Wild (oat, wild; 31 g ai/ha) | Ryegrass, Italian plant response rating (ryegrass, Italian; Postemergence, 250 g ai/ha) | Plant response rating, Field Violet (field violet; Postemergence, 16 g ai/ha) | Radish, Wild plant response rating (radish, wild [3]; Postemergence, 31 g ai/ha) | Wheat, Spring plant response rating (wheat, spring; Postemergence, 250 g ai/ha) | Wheat, Winter plant response rating (wheat, winter; postemergence, 62 g ai/ha) | Plant response rating, Barley, Spring (barley, spring; 62 g ai/ha) | Plant response rating (scale 0 to 100), Pigweed (pigweed; [7]) | Windgrass plant response rating (windgrass; Postemergence, 125 g ai/ha) | Windgrass plant response rating (windgrass; postemergence, 62 g ai/ha)
